Data published in patent US20190262355A1, “COMBINATION OF A BRD4 INHIBITOR AND AN ANTIFOLATE FOR THE THERAPY OF CANCER” (CeMM-Forschungszentrum für Molekulare Medizin GmbH, priority 2016, published 2019).
No end group written: not given here.

Key:
[1] = target: T1, chromatin-associated MTHFD1 (Homo sapiens, UniProt P11586); assay: Western blot of chromatin associated proteins: MTHFD1; assay type: cell-based; conditions: HAP1 cells, two-hour treatment, 0.5 μM (FIG. 2C)
T1 construct: endogenous in cells; host or cells: HAP1
T1 sequence (P11586 1-935): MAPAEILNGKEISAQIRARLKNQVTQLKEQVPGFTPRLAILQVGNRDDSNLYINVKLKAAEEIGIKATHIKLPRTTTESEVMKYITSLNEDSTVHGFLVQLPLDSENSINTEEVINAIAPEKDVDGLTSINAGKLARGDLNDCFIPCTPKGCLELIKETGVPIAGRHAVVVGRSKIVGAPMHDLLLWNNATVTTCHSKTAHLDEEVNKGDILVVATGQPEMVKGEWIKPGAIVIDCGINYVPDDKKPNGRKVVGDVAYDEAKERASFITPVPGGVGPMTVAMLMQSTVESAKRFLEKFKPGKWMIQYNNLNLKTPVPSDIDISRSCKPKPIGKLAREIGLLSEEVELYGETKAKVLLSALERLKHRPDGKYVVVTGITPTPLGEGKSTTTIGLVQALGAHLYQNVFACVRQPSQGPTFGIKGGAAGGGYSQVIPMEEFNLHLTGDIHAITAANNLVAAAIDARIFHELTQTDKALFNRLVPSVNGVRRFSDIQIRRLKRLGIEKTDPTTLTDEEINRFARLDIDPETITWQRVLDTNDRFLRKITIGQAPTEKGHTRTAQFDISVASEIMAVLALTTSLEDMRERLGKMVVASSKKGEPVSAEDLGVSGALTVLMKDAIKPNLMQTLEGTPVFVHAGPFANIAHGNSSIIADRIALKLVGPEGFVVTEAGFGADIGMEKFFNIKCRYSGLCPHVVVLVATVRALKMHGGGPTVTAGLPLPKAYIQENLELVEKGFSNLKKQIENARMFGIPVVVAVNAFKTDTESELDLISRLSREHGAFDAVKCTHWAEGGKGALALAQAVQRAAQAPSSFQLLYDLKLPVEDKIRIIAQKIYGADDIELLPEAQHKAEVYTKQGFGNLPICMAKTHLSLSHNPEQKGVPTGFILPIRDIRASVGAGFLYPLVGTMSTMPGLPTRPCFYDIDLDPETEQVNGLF
Procedure: (§1) For Western Blot, proteins were separated on polyacrylamide gels with SDS running buffer (50 mM Tris, 380 mM Glycine, 7 mM SDS) and transferred to nitrocellulose blotting membranes. All membranes were blocked with blocking buffer (5% (m/v) milk powder (BioRad) in TBST (Tris-Buffered Saline with Tween: 50 mM Tris (tris (hydroxymethyl)aminomethane), 150 mM NaCl, 0.05% (v/v) Tween 20, adjusted to pH 7.6). Proteins were probed with antibodies against BRD4 (ab128874, 1:1000, Abcam), Actin (ab16039, 1:1000, Abcam), MTHFD1 (ab70203, Abcam; H120, Santa Cruz; A8, Santa Cruz; all used at 1:1000), GFP (G10362, 1:1000, Life Technology), RCC1 (C-20, 1:1000, Santa Cruz), β-Tubulin (T-4026, 1:1000, Sigma), SHMT1 (ab186130, 1:1000, Abcam) and H2B (ab156197, 1:1000, Abcam) and detected by HRP (horseradish peroxidase) conjugated donkey anti-rabbit IgG antibody (ab16284, 1:5000, Abcam) or donkey anti-mouse IgG antibody (Pierce) and visualized with the Pierce ECL Western Blotting substrate (Amersham), according to the provided protocol.
Cell fractionation and chromatin enrichment was carried out as previously described^29 with some adaptations. […]

[2] = system: MTHFD1 binding to genomic loci; assay: ChIP-Seq of MTHFD1 genomic binding in HAP1 cells; assay type: cell-based, human; conditions: 2 h treatment (1 μM per FIG. 16A)
Procedure: Three 15 cm dishes with cells at 70-80% of confluency were used for one ChIP experiment. Briefly, cells were cross-linked with 1% formaldehyde for 10 minutes at room temperature, and then quenched with 125 mM glycine for 5 minutes at room temperature. Then, cells were washed with cold PBS, collected in 15 ml tubes and washed again with cold PBS by centrifugation at 1200 rpm for 5 minutes at 4° C. and finally snap frozen.
ChIP was performed as described^18 by using BRD4 (Bethyl Laboratories, Inc.) and MTHFD1 (sc-271413, Santa Cruz) antibodies. In brief, crosslinked cell lysates were sonicated in order to shred the chromatin into 200-500 bp fragments. Fragmented chromatin was incubated overnight at 4° C. with antibodies, followed by 2 hours at 4° C. with pre-blocked Dynabeads Protein G (ThermoFisher Scientific). […]
Reads containing adapters were trimmed using Skewer^19 and aligned to the hg19/GRCh37 assembly of the Human genome using Bowtie2^20 with the “—very-sensitive” parameter and duplicate reads were marked and removed with sambamba. Library quality was assessed with the phantomPeakQualtools scripts^21. For visualization exclusively, the inventors generated genome browser tracks with the genomeCoverageBed command in BEDTools^22 and normalized such that each value represents the read count per base pair per million mapped and filtered reads. […]

WT-KBM7 cells = assay: Cell cycle profile by PI staining and FACS (diploidization); assay type: cell-based, human; conditions: treated overnight during one week, PI incorporation and FACS (FIG. 6D)
Procedure: For cell cycle analysis, 1 million cells were fixed with 70% ethanol for 24 hours, washed with PBS/1% BSA/0.1% Tween and incubated with RNase for 30 minutes. Nuclei were stained with 5 μg/ml PI (propidium iodide, Sigma) for 10 minutes prior to FACS analysis (BD FACSCalibur Flow Cytometer).
The prerequisite for effective GT genetic screens is a haploid system where monoallelic disruptive GT integration results in gene knock-out (KO). Therefore, KBM7 cells, a chronic myeloid leukemia cell line with near haploid karyotype, were chosen for the generation of the BRD4 reporter cell lines as previously described^15. […] Propidium iodide (PI) incorporation and FACS analysis were used to assay the cell cycle profile of several REDS clones in order to select a haploid clone suitable for GT-based genetic screen. […] REDS1 was the only clonal cell line with haploid karyotype (see FIG. 6B), also confirmed by metaphase spreads (see FIG. 6C).

GST-BRD4 (full length) = target: T2, GST-BRD4 (full length) (Homo sapiens, UniProt O60885); assay: AlphaLISA assay of acetylated MTHFD1 peptides with GST-BRD4; assay type: binding
T2 construct: AlphaLISA assay performed with the indicated MTHFD1 acetylated peptides and GST-BRD4 (full length); made in house
Procedure: The Amplified Luminescent Proximity Homogenous Assay (AlphaLISA©), a homogenous and chemiluminescence-based method, was performed to explore the direct interaction of BRD4 and acetylated substrates.
Briefly, in this assay, the biotinylated MTHFD1 acetylated peptides (possible substrates) are captured by streptavidin-coupled donor beads. GST-tagged BRD4 (produced as previously described^15) is recognized and bound by an anti-GST antibody conjugated with an acceptor bead. In case of interaction between BRD4 and one acetylated peptide, the proximity between the partners (<200 nm) allows that the excitation (680 nm wavelength) of a donor bead induces the release of a singlet oxygen molecule (^1O2) that then triggers a cascade of energy transfer in the acceptor bead, resulting in a sharp peak of light emission at 615 nm.
GST-BRD4 and each of the MTHFD1 acetylated peptides were incubated together. After 30 minutes, GSH (Glutathione) Acceptor beads (PerkinElmer) were added and after another incubation time of 30 minutes, Streptavidin-conjugated donor beads (PerkinElmer) were added. The signal (alpha counts) was read by the EnVision 2104 Multilabel Reader (PerkinElmer).

BRD4-MTHFD1 interaction = target: T3, BRD4-MTHFD1 interaction (Homo sapiens, UniProt O60885+P11586); assay: MTHFD1 pull-down on HAP1 whole cell lysates (BRD4-MTHFD1 interaction); assay type: binding; conditions: HAP1 whole cell lysates treated with 50 μM (FIG. 9I)
T3 construct: MTHFD1 pull-down performed on HAP1 whole cell lysates treated with 50 μM (S)-JQ1, MTX; endogenous in cells; host or cells: HAP1
Procedure: For immunoprecipitation, 1 mg of protein extract was incubated overnight at 4° C. with 10 μl of Dynabeads (either A or G, Life technology) preincubated for 2 hours at 4° C. with 1 μg of BRD4 (ab128874, Abcam), MTHFD1 (A8, Santa Cruz) or GFP (G10362, Life Technology) antibodies.

[3] = system: MTHFD1 nuclear localization; assay: Nuclear vs cytosol fractionation Western blot in HAP1 cells; assay type: cell-based, human; conditions: 72 hours (FIG. 9D)
Procedure: as §1

Cc1sc2c(c1C)C(c1ccc(Cl)cc1)=N[C@@H](CC(=O)NCCCCCCCCNC(=O)COc1cccc3c1C(=O)N(C1CCC(=O)NC1=O)C3=O)c1nnc(C)n1-2 (some centres unmarked) [dBET6]
MTHFD1 on chromatin after degronimid treatment [1]: MTHFD1 was lost from chromatin
MTHFD1 binding to distinct genomic loci [2]: binding was lost

Cc1sc2c(c1C)C(c1ccc(Cl)cc1)=N[C@H](CC(=O)OC(C)(C)C)c1nnc(C)n1-2 [(R)-JQ1]
diploidization of WT-KBM7 (cell cycle profile) (WT-KBM7 cells): Only (S)-JQ1 treatment induced WT-KBM7 diploidization

MTHFD1(47-66)K56ac: synthetic biotinylated MTHFD1 peptide, residues 47-66, acetylated at lysine 56 (DDSNLYINVK(Ac)LKAAEEIGIK; also: biotinylated, site not given here; UniProt P11586 47-66, looked up, fragment)
increase of the alphaLISA signal (GST-BRD4 (full length); peptide used at high concentration (FIG. 9F)): ~5 fold
alphaLISA peptide titration with GST-BRD4 (GST-BRD4 (full length); titration (FIG. 9G)): dose-responsive manner
effect on BRD4-MTHFD1 interaction in MTHFD1 pull-down (BRD4-MTHFD1 interaction): not able to inhibit the BRD4-MTHFD1 interaction

Cc1sc2c(c1C)C(c1ccc(Cl)cc1)=N[C@@H](CC(=O)NCCCCNC(=O)COc1cccc3c1C(=O)N(C1CCC(=O)NC1=O)C3=O)c1nnc(C)n1-2 (some centres unmarked) [dBET1]
MTHFD1 on chromatin after degronimid treatment [1]: MTHFD1 was lost from chromatin

ginkgolic acid
redistribution of MTHFD1 between nucleus and cytoplasm [3]: did not cause a redistribution of MTHFD1 between the nucleus and cytoplasm
